Each structure is given as a SMILES string.

Test [1] deals with T1, β-PDGFR (Homo sapiens, UniProt P09619). Description: HR5 phosphorylation assay (CHO cells overexpressing human β-PDGFR, PDGF BB stimulation). Format: cell-based. Further details: host or cells: CHO cells (HR5 line). The conditions noted are these: 8 nM PDGF BB, PDGF receptor phosphorylation.
Description: • (1) HR5 Phosphorylation Assay
The HR5 cell line is a cell line of CHO cells engineered to overexpress human β-PDGFR, which cell line is available from the ATCC. The expression level of β-PDGFR in HR5 cells is around 5×10^4 receptor per cell. For the phosphorylation assay according to the invention, HR5 cells were grown to confluency in 96-well microtiter plates under standard tissue culture conditions, followed by serum-starvation for 16 hours. Quiescent cells were incubated at 37° C. without or with increasing concentrations of the test compound (0.01-30 uM) for 30 minutes followed by the addition of 8 nM PDGF BB for 10 minutes. Cells were lysed in 100 mM Tris, pH 7.5, 750 mM NaCl, 0.5% Triton X-100, 10 mM sodium pyrophosphate, 50 mM NaF, 10 ug/ml aprotinin, 10 ug/ml leupeptin, 1 mM phenylmethylsulfonyl fluoride, 1 mM sodium vanadate, and the lysate was cleared by centrifugation at 15,000× g for 5 minutes. Clarified lysates were transferred into a second microtiter plate in which the wells were previously coated with 500 ng/well of 1B5B11 anti-β-PDGFR mAb, and then incubated for two hours at room temperature. […] Wells were washed prior to adding ABTS (Sigma), and the rate of substrate formation was monitored at 650 nm.
For test [2], the target named is T1, β-PDGFR. In words: MG63 phosphorylation assay (endogenous β-PDGFR phosphorylation, PDGF-BB stimulation with human plasma). The test is classed as cell-based. Further details: This assay is for measuring endogenous β-PDGFR phosphorylation in MG63 cells; endogenous in cells; host or cells: MG63 human osteosarcoma cells (ATCC). The conditions noted are these: MG63 human osteosarcoma cells; PDGF-BB stimulation in presence of 45% human plasma; PDGF receptor phosphorylation; read-out: MG63 w/human plasma IC50.
Excerpt: The MG63 cell line is a human osteosarcoma tumor cell line available from the ATCC. This assay is for measuring endogenous β-PDGFR phosphorylation in MG63 cells. The assay conditions are the same as those described at for HR5 cell, except that PDGF-BB stimulation is provided in the presence or absence of 45% human plasma.

T1 sequence (P09619 33-1106): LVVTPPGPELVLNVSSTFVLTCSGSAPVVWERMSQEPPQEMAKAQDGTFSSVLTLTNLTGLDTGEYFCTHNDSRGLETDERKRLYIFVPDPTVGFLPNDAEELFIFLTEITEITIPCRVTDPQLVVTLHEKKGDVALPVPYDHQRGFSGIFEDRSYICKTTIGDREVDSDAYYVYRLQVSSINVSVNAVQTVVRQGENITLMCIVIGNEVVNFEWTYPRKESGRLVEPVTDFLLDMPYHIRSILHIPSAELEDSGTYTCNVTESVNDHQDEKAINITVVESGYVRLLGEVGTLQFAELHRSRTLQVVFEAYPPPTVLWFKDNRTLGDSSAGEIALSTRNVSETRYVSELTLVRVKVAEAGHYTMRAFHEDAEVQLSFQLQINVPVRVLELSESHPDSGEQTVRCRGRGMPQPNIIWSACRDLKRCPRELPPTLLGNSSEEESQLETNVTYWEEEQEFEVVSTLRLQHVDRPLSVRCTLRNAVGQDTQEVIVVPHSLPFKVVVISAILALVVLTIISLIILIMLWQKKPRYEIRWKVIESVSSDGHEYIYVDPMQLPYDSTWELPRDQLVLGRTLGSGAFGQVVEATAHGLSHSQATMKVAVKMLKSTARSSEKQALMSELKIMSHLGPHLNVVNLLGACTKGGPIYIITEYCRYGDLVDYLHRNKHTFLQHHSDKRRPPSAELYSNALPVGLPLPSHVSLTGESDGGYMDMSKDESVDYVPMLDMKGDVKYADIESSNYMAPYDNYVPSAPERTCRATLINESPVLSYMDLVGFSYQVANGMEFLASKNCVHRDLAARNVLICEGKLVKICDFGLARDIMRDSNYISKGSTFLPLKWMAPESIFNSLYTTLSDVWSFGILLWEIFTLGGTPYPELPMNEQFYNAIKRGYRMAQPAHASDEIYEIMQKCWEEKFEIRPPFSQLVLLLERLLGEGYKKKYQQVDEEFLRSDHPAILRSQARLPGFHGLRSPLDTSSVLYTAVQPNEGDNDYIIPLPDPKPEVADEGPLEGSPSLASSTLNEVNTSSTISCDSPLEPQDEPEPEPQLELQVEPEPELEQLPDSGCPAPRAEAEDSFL

On to `COc1cc2c(N3CCN(C(=O)Nc4ccc(OC(C)C)cc4)CC3)c(C#N)cnc2cc1OCCCN1CCCCC1` [Example 1, {4-[3-cyano-6-methoxy-7-(3-pipetidylpropoxy)quinolin-4-yl)piperazinyl}-N-[4-(methylethoxy)phenyl]carboxamide], for which the IC50 amounted to 60 nM in test [1] and 134 nM in test [2].

The record behind these values is patent US6960580B2, “Nitrogenous heterocyclic substituted quinoline compounds” (Millennium Pharmaceuticals, Inc., priority 2001, dated 2005).
